Experimental data as given in US3941842A, “P,P'-Disubstituted α-trichloromethylbenzylanilines” (priority 1972, dated 1976).

Legend:
Musca domestica Snaidm = test: Topical LD50 to adult female SNAIDM houseflies; settings: for LD50: Musca domestica, read-out: Topical LD50, Musca domestica Snaidm, Alone; for LD50 / Topical LD50, Musca domestica Snaidm, with pb: topical; for Topical LD50, Musca domestica Snaidm, with pb: SNAIDM strain, synergized with piperonyl butoxide; for SR, Musca domestica Snaidm: synergistic ratio: LD50 alone/LD50 synergized with piperonyl butoxide
Description: (§1) The compounds of the present invention were tested for insecticidal activity by standard methods, and compared with the insecticidal activities of DDT and symmetrical analogs of DDT, such methoxychlor. Toxicological methods for the determination of the topical LD50 values to adult female SNAIDM and RSP houseflies, Musca domestica L. and to Phormia regina, and LC50 values to Culex pipiens quinquefasciatus Say, and Anopheles albimanus Weid mosquitoes were described by Metcalf el al., 44 Bull. World Health Org. 363 (1971). The methods for evaluation of metabolism by mouse liver homogenate and by female RSP housefly and salt-marsh caterpillar larvae Estigmene acrea Drury, were described by Kapoor et al., 18 J. Agr. Food Chem. 1145 (1970). The techniques for model eocsystem evluation were described by Metcalf et al., 5 J. Environ. Sci. Tech. 709 (1971).
(§2) Since piperonyl butoxide serves to block the action of MFO, the synergized LD50 values express the intrinsic toxicity of the compounds. With the detoxifying action of MFO enzymes blocked, the intrinsic toxicity of the compounds can thus be measured.

Musca domestica Rsp = test: Topical LD50 to adult female RSP houseflies; settings: for LD50: Musca domestica, read-out: Topical LD50, Musca domestica Rsp, Alone; for LD50 / Topical LD50, Musca domestica Rsp, with pb: topical; for Topical LD50, Musca domestica Rsp, with pb: RSP strain, synergized with piperonyl butoxide; for SR, Musca domestica Rsp: synergistic ratio: LD50 alone/LD50 synergized with piperonyl butoxide
Description: as §1, §2

Phormia regina = test: whole plant or invertebrate; settings: topical; for LD50: Phormia regina, read-out: Topical LD50, Phormia regina, Alone; for Topical LD50, Phormia regina, with pb: synergized with piperonyl butoxide
Description: as §1, with “363 (1971).” left out, “Food Chem. 1145 (1970).” left out, “Tech.” for “Tech. 709 (1971).”
as §2

Culex fatigans larvae = test: LC50 to Culex fatigans larvae; assay type: in vivo, Culex pipiens quinquefasciatus Say
Text: (§3) World Health Org. 363 (1971). […] Food Chem. 1145 (1970). […] Sci. Tech. 709 (1971). The results are detailed in Table II. ##SPC1##

[1] = tested on: Anopheles albimanus larvae; test: LC50 to Anopheles albimanus larvae; assay type: in vivo, Anopheles albimanus Weid
Text: as §3

[2] = tested on: Musca domestica (SNAIDM and RSP strains), Phormia regina, Culex fatigans and Anopheles albimanus; test: Insecticidal activity over the test insects (Table II, summarised in words); assay type: in vivo; settings: overall, test insects of Table II
Description: as §1, §2

Compound	LD50 (Musca domestica Snaidm)	Topical LD50, Musca domestica Snaidm, with pb (Musca domestica Snaidm)	SR, Musca domestica Snaidm (Musca domestica Snaidm)	LD50 (Musca domestica Rsp)	Topical LD50, Musca domestica Rsp, with pb (Musca domestica Rsp)	LD50 (Phormia regina)	Topical LD50, Phormia regina, with pb (Phormia regina)	LC50 Culex fatigans larvae (Culex fatigans larvae)	LC50 Anopheles albimanus larvae [1]	insecticidal effectiveness / toxicity (in words) [2]	SR, Musca domestica Rsp (Musca domestica Rsp)
CN(C)c1ccc(C(Nc2ccc([N+](=O)[O-])cc2)C(Cl)(Cl)Cl)cc1 (stereo not drawn) [XXVI]	> 500 mg/kg	120 μg per g	> 4	> 500 mg/kg	500 μg per g	> 250 mg/kg	> 250 μg per g	0.38 ppm	> 1.0 ppm	Toxicity was also substantially decreased	
COc1ccc(C(Nc2ccc(C)c(C)c2)C(Cl)(Cl)Cl)cc1 (stereo not drawn) [XXIII]	85 mg/kg	6.5 μg per g	13.0	100 mg/kg	28.0 μg per g	77.5 mg/kg	15.5 μg per g	0.30 ppm	0.18 ppm	Toxicity was also substantially decreased	3.6
COc1ccc(C(Nc2ccc(C3CCCCC3)cc2)C(Cl)(Cl)Cl)cc1 (stereo not drawn) [XXVII]	> 500 mg/kg	48 μg per g	> 10	> 500 mg/kg	165 μg per g	> 250 mg/kg	112.5 μg per g	1.0 ppm	> 1.0 ppm	Toxicity was also substantially decreased	> 3
CCOc1ccc(C(Nc2ccccc2OCC)C(Cl)(Cl)Cl)c(OCC)c1 (stereo not drawn) [XXII]	> 500 mg/kg	500 μg per g		> 500 mg/kg	500 μg per g	> 250 mg/kg	> 250 μg per g	> 1.0 ppm	> 1.0 ppm	Toxicity was also substantially decreased	
CCOc1ccc(NC(c2ccccc2OCC)C(Cl)(Cl)Cl)cc1 (stereo not drawn) [XX]	> 500 mg/kg	500 μg per g		> 500 mg/kg	> 500 μg per g	> 250 mg/kg	> 250 μg per g	> 1.0 ppm	> 1.0 ppm	Toxicity was greatly decreased	
Cc1ccc(NC(c2ccc(C)cc2)C(Cl)(Cl)Cl)cc1 (stereo not drawn) [IV]	43 mg/kg	5.0 μg per g	8.6	43 mg/kg	6.5 μg per g	33.7 mg/kg	21.0 μg per g	0.18 ppm	0.21 ppm	one of the more insecticidal compounds	6.6
CCOc1ccc(C(Nc2ccc(Cl)cc2)C(Cl)(Cl)Cl)cc1 (stereo not drawn) [VII, α-trichloromethyl1p-ethoxybenzyl-p-chloroaniline]	19 mg/kg	10.5 μg per g	1.8	31 mg/kg	13.5 μg per g	24.5 mg/kg	20.0 μg per g	0.032 ppm	0.060 ppm	only slightly less active than compound XI	2.3
